Measured values taken from a melting point compilation (Tetko et al.; mined from patent text by program, amines drawn as free bases though some values may be those of a salt).

Row | Compound | melting point
1 | O=C(Cc1ccc(Cl)cc1Cl)c1ccncc1 | 77 °C
2 | CC(C(=O)OCN1C(=O)CCC(N2C(=O)c3ccccc3C2=O)C1=O)N(C)C(=O)OC(C)(C)C (stereo not given) | 123 to 125 °C
3 | CCC(C)C(C(=O)O)N1C(=O)C2C3C=CC(C3)C2C1=O (stereo not given) | 109 °C
4 | Cc1ncc([N+](=O)[O-])n1CCOC(=O)Cc1ccccc1Nc1c(Cl)cccc1Cl | 122 to 124 °C
5 | Cc1occc1C(=S)Nc1ccc(Cl)c(C=NN2CCOCC2)c1 | 142 to 143 °C
6 | C=CCN(CC=C)c1ccc2[nH]c3cnc(C(=O)OCC)nc3c2c1 | 188 to 190 °C
7 | O=C(c1cc(Cl)ccc1O)c1ccccc1F | 76 to 80.5 °C
8 | c1ccc(-c2cnc3ccccc3n2)cc1 | 77 °C
9 | COc1ccc(N(CCC(O)CO)S(=O)(=O)c2c(F)c(F)c(F)c(F)c2F)cc1 (stereo not given) | 126 to 128 °C
10 | CC(C)(C)OC(=O)CON=C(C(=O)OC(c1ccccc1)c1ccccc1)c1ncsn1 | 139 to 141 °C
11 | COc1c(Cl)ccnc1CSc1nc2cc(OC(F)F)ccc2[nH]1 | 94 to 99 °C
12 | Cc1cc(C(=O)C(=O)c2ccc(OC(F)F)cc2)ccc1F | 77 to 78 °C
13 | Nc1nc2c(s1)CCN(CC1CC1c1ccccc1)CC2 (stereo not given) | 109 to 113 °C
14 | O=C(Nc1ccc(OCCN2CCOCC2)c2ccccc12)OCC(Cl)(Cl)Cl | 124 to 125 °C
15 | CCOC(=O)c1cn(-c2nc(NC(C)(C)C)c(F)cc2F)c2c(Cl)c(F)c(F)cc2c1=O | 203 to 205 °C
16 | CCN1C(=O)C(C)(C)C(=O)N(C)c2cc(CN(CCn3ccc4oc(C)cc4c3=O)Cc3nc4ccccc4n3C)ccc21 | 127 to 133 °C
17 | COC(=O)c1c(C)[nH]c(C)c1C1=CC(=O)c2ncccc2C1=O | 237 to 241 °C
18 | CC(=O)NCC1CN(c2ccc(N3CCN(C4=NC(=O)CS4)CC3)c(F)c2)C(=O)O1 (stereo not given) | 225 to 227 °C
19 | Cn1cc(C2=C(c3cn(CCCC#N)c4ccccc34)C(=O)NC2=O)c2ccccc21 | 245 to 247 °C
20 | C[Si](C)(C)c1ccc2c(c1)C(CN1CCCCC1)c1cc([Si](C)(C)C)ccc1-2 | 107 to 108 °C
21 | COC(=O)C(C#N)=Cc1cc2c(cc1C)N(CCOC(C)=O)C(C)(C)CC2C (stereo not given) | 134 to 135 °C
22 | CC(=NO)c1cc2c3ccccc3[nH]c(=O)n2n1 | 340 to 342 °C
23 | O=C1Nc2cc([N+](=O)[O-])ccc2OC1(C(F)F)C(F)F | 178 to 181 °C

Next, values leading:

Row | melting point | Compound
24 | 115 to 120 °C | CC(=O)OC[C@H]1OC(O)[C@H](OC(C)=O)[C@@H](F)[C@@H]1OC(C)=O (stereo not given in full)
25 | 65 to 67 °C | COc1ccc(-n2ccc3ccccc32)cc1F
26 | 151 °C | CC1CCCC(C)N1S(=O)(=O)N[C@@H](Cc1ccc(Oc2nccc3cnccc23)cc1)C(=O)O (stereo not given in full)
27 | 229 to 230 °C | CC(C)(C)c1ccc(/C=C/C(=O)Nc2ccc3nccnc3c2)cc1
28 | 143 °C | Cc1cc(Oc2ccc([N+](=O)[O-])cc2)c2ncccc2c1
29 | 203 to 206 °C | CC(C)(C)c1cc(C=Cc2ccccc2NC(=O)NC2CCCCCC2)cc(C(C)(C)C)c1O
30 | 139 to 150 °C | COc1ccccc1N1CCN(CCCCNc2cc(Cl)nnc2OC)CC1
31 | 132 to 133 °C | O=C(O)C(=O)c1ccc(OC/C=C/c2ccc(F)cc2)cc1
32 | 94 °C | O=Cc1c(O)cccc1OCCCCC(=O)O
33 | 167 °C | Cc1cc(C2=NN(c3nccs3)[C@H](C)Cc3cc4c(cc32)OCO4)cc(C)c1[N+](=O)[O-]
34 | 100 to 103 °C | FCc1cccc(C#CCCn2cc(-c3ccc(F)cc3)nn2)n1
35 | 66 to 68 °C | CSc1ccc2nccn2n1
36 | 119 to 121 °C | COC(=O)c1ccccc1-c1cc(-c2ccc(OC)cc2)n(C(C)=O)n1
37 | 286 to 288 °C | Cn1cc(-c2cc3cccnc3[nH]2)c2cc(C(=O)NCCC(N)=O)ccc21
38 | 205 to 206 °C | COc1ccc2cccc3c2c1C(=O)N(O)C3=O
39 | 232 to 236 °C | CCCCCP(=O)(O)CCCN
40 | 224 to 226 °C | Fc1cccc(Cl)c1CSc1nc2cnccc2[nH]1
